Measurements from patent US8937089B2, “Synergistic mixtures of anthranilamide invertebrate pest control agents” (priority 2004, dated 2015).

Columns and labels:
Type in all cases: in vivo
[1] = tested on: cotton melon aphid (Aphis gossypii Glover); assay: whole plant or invertebrate
Method in brief: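 Sprays in acetone–water with 300 ppm non-ionic surfactant, at ppm concentrations, applied to aphid-infested (30–40 per plant) 6–7-day cotton, in triplicate. Evaluation after 6 days in a growth chamber at 19–21 °C and 50–70% relative humidity, covering contact and/or systemic action.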

[2] = tested on: beet armyworm (Spodoptera exigua); assay: Test I: control of beet armyworm, spray on tomato plants, excised leaves, % mortality and % feeding at 72 hours
Procedure: For evaluating control of beet armyworm (Spodoptera exigua), methomyl was in the liquid formulation as Lannate® LV (29% of active ingredient). Compound 1 was in a water dispersible granules (WDG) formulation with 35% active ingredient. The test compounds were dissolved in water. Enough water was added to make 100 ppm of active ingredient for each compound. Serial dilutions were made to obtain the appropriate concentrations. To obtain the desired mixture concentrations of each compound, twice the desired concentration of each of the two mixture partner compounds were mixed together in equal volumes.
The diluted solutions of the test compounds were sprayed to run-off on three-week-old tomato plants. The plants were placed on a rotating turntable sprayer (10 rpm). Test solutions were applied using a flat fan air-assisted nozzle (Spraying Systems 122440) at 10 psi (69 kPa). After each treated plant had dried, leaves were excised from the treated plant. The leaves were cut into pieces, which were placed singly into 5.5 cm-by-3.5 cm cells of a sixteen-cell plastic tray. Each cell contained a 2.5-cm square of moistened chromatography paper to prevent desiccation. One insect was placed in each cell. There two trays per treatment. […]

[3] = tested on: western flower thrip (Frankliniella occidentalis Pergande); assay: whole plant or invertebrate; conditions: single compound, spray, 7 days
Method in brief: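 Bean plants aged 5–7 days received a spray of test solution (10% acetone, 90% water, 300 ppm surfactant), in triplicate. Adult thrips (22–27 per unit) were introduced once the plants had dried for 1 h. Incubation lasted 7 days at 25° C and 45–55% RH.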

[4] = tested on: silverleaf whitefly (Bemisia argentifolii Bellows and Perring); assay: whole plant or invertebrate; conditions: Table 2B
Method in brief: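 Whitefly-egg-infested 12–14-day-old cotton plants sprayed with compound in 10% acetone/90% water plus 300 ppm non-ionic surfactant, in triplicate. Plants then held 13 days at 28 °C and 50–70% relative humidity before mortality assessment.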

[5] = tested on: corn planthopper (Peregrines maidis); assay: whole plant or invertebrate; conditions: Corn Plant Hopper
Method in brief: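 Contact/systemic test on corn planthopper: 10–20 nymphs (18- to 20-day-old) released onto young maize plants 1 h after spraying, with three replicate units per treatment. Spray solution was acetone/water 10:90 containing 300 ppm non-ionic spreader; units kept 6 days at 19-21° C., 50-70% RH.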

[6] = tested on: potato leafhopper (Empoasca fabae Harris); assay: whole plant or invertebrate; conditions: alone
Method in brief: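 Contact and/or systemic test: five adult leafhoppers aged 18–21 days were released onto Longio bean plants 1 h after spraying. The spray was 1 mL per unit in acetone/water (10:90) with 300 ppm non-ionic surfactant, run in triplicate. Plants were kept 6 days in a growth chamber at 19–21 °C and 50–70% humidity.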

[7] = tested on: diamondback moth (Plutella xylostella); assay: whole plant or invertebrate
Procedure: The test compounds were dissolved in water. […] Serial dilutions were made to obtain the appropriate concentrations. To obtain the desired mixture concentrations of each compound, twice the desired concentration of each of the two mixture partner compounds were mixed together in equal volumes.
The diluted solutions of the test compounds were sprayed to run-off on three-week-old tomato plants. The plants were placed on a rotating turntable sprayer (10 rpm). Test solutions were applied using a flat fan air-assisted nozzle (Spraying Systems 122440) at 10 psi (69 kPa). […] The leaves were cut into pieces, which were placed singly into 5.5 cm-by-3.5 cm cells of a sixteen-cell plastic tray. Each cell contained a 2.5-cm square of moistened chromatography paper to prevent desiccation. One insect was placed in each cell. There two trays per treatment. Trays were held in the growth chamber at 25° C., 16-hour light:8-hour dark, 60% relative humidity for 4 days.
For evaluating control of diamondback moth (Plutella xylostella), cabbage (var. Stonehead) plants were grown in Metromix potting soil in 10-cm pots in aluminum trays to test size (28 days, 3-4 full leaves) the plants were sprayed to the point of runoff using the turntable sprayer as described in Test I. Test compounds were formulated and sprayed on test plants as described for Test I. After drying for 2 hours, the treated leaves were excised and infested with one cabbage looper per cell and covered. The test units were placed on trays and put in a growth chamber at 25° C. and 60% relative humidity for 4 days.

[8] = tested on: green peach aphid (Myzus persicae Sulzer); assay: whole plant or invertebrate; conditions: Green Peach Aphid
Method in brief: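 Compounds formulated in 10% acetone/water with 300 ppm X-77 surfactant were atomized onto aphid-infested radish seedlings, with three replicates per treatment. Infestation was 30–40 aphids transferred on excised leaf pieces, covering contact and systemic exposure. Test units stayed 6 days in a growth chamber at 19–21 °C and 50–70% relative humidity.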

Compound: CNC(=O)ON=C(C)SC [Methomyl]
- % mortality (obs) ([1]; rate 2 ppm): 11%
- % mortality (obs) ([1]; rate 5 ppm): 35%
- % mortality (obs) ([1]; rate 15 ppm): 64%
- % feeding ([2]; Methomyl 5.22 ppm): 17%
- % mortality (observed) ([2]; Methomyl 5.22 ppm): 6%
- % feeding ([2]; Methomyl 10.9 ppm): 29%
- % mortality (observed) ([2]; Methomyl 10.9 ppm): 10%
- % feeding ([2]; Methomyl 16.3 ppm): 9%
- % mortality (observed) ([2]; Methomyl 16.3 ppm): 44%
- % feeding ([2]; Methomyl 20.6 ppm): 10%
- % mortality (observed) ([2]; Methomyl 20.6 ppm): 16%
- % feeding ([2]; Methomyl 37.8 ppm): 3%
- % mortality (observed) ([2]; Methomyl 37.8 ppm): 44%
- % feeding ([2]; Methomyl 100 ppm): 0%
- % mortality (observed) ([2]; Methomyl 100 ppm): 84%
- % mortality (obs) ([3]; rate 30 ppm): 60%
- % mortality (obs) ([3]; rate 100 ppm): 60%
- % mortality (obs) ([3]; rate 300 ppm): 100%
- % mortality (obs) ([4]; rate 10 ppm): 4%
- % mortality (obs) ([4]; rate 100 ppm): 3%
- % mortality (obs) ([4]; rate 1000 ppm): 6%
- % mortality (obs) ([5]; rate 0.5 ppm): 5%
- % mortality (obs) ([5]; rate 1 ppm): 21%
- % mortality (obs) ([5]; rate 2 ppm): 19%
- % mortality (obs) ([6]; rate 1 ppm): 0%
- % mortality (obs) ([6]; rate 2 ppm): 53%
- % mortality (obs) ([6]; rate 5 ppm): 100%
- % mortality (obs) ([7]; rate 30 ppm): 80%
- % mortality (obs) ([7]; rate 40 ppm): 90%
- % mortality (obs) ([7]; rate 50 ppm): 80%
- % mortality (obs) ([8]; rate 50 ppm): 20%
- % mortality (obs) ([8]; rate 100 ppm): 61%
- % mortality (obs) ([8]; rate 200 ppm): 100%
